Our source for the IC50 values is patent EP4227307A1 (Genzyme Corporation, priority 2022, dated 2023).

The term IC50 denotes the concentration that gives 50% inhibition.

Each structure is given as a SMILES string. Where a name gives a salt, the structure may show the parent alone.

The target in this test is T1, human recombinant 6His-Nterm SHP2 full-length (Thr2-Arg593) (Homo sapiens, UniProt Q06124).
T1 construct: 6His-Nterm SHP2 full-length (Thr2-Arg593, R&D system); 6His (N); purchased R&D system
T1 sequence (Q06124 2-593): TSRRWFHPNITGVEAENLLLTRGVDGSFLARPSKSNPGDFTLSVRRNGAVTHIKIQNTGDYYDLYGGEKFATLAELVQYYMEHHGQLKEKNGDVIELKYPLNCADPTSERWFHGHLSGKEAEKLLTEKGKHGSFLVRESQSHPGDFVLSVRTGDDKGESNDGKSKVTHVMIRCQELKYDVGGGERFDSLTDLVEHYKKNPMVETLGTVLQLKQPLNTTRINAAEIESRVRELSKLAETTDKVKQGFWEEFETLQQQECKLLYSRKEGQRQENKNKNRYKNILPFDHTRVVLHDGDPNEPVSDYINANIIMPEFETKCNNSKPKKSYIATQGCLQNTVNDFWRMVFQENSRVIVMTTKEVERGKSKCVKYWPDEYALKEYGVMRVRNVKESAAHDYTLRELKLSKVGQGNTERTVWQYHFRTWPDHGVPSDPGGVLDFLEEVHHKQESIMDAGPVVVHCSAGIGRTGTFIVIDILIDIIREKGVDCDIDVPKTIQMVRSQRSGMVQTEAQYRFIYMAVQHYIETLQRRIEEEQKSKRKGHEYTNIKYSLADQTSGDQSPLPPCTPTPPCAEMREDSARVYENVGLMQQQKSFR
In words: SHP2 Phosphatase Assay (DiFMUP fluorescence). It is filed as biochemical. The settings on record: SHP2 0.2 nM pre-incubated with 100 nM bi-phosphorylated activating peptide; compound 1000-0.05 nM, 30 min pre-incubation; DiFMUP 20 µM, 45 min, room temperature; 10-concentration dose-response. The method, boiled down: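 SHP2 (0.2 nM) preactivated ≥10 min with 100 nM bis-phosphorylated peptide, then 30 min with compound (10 concentrations, 1000–0.05 nM) at room temperature, pH 7.2 HEPES buffer with DTT. DiFMUP (20 µM, added solution) reacted 45 min, pervanadate-stopped; fluorescence 350/450 nm. IC50 by 4-parameter logistic fit.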
As for `Cc1nc(N2CCC3(CC2)Cc2nc(C(F)F)ccc2[C@H]3N)c2ccnn2c1-c1cnn(C)c1C` [Compound 61, (5S)-2-(difluoromethyl)-1'-[7-(1,5-dimethylpyrazol-4-yl)-6-methyl-pyrazolo[1,5-a]pyrazin-4-yl]spiro [5,7-dihydrocyclopenta[b]pyridine-6,4'-piperidine]-5-amine], the IC50 came out at 0.211 µM. Under `N[C@@H]1c2cccnc2CC12CCN(c1ncc(-c3cccc(F)c3F)n3nccc13)CC2` [Compound 26, (5S)-1'-[7-(2,3-difluorophenyl)pyrazolo[1,5-a]pyrazin-4-yl]spiro[5,7-dihydrocyclopenta[b]pyridine-6,4'-piperidine] -5-amine formate] stands 0.023 µM; under `COc1ccc2c(c1)CC1(CCN(c3nc(C)c(-c4cnn(C)c4C)n4nccc34)CC1)[C@@H]2N` [Compound 62, (1S)-1'-[7-(1,5-dimethylpyrazol-4-yl)-6-methyl-pyrazolo[1,5-a]pyrazin-4-yl]-5-methoxy-spiro[indane-2,4'-piperidine]-1-amine], 0.017 µM. Under `Cc1nccc(-c2c(C)nc(N3CCC4(CC3)Cc3ccc(F)cc3[C@H]4N)c3ccnn23)c1Cl` [Compound 91, (1S)-1'-[7-(3-chloro-2-methyl-4-pyridyl)-6-methyl-pyrazolo[1,5-a]pyrazin-4-yl]-6-fluoro-spiro[indane-2,4'-piperidine]-1-amine hydrochloride] stands 0.019 µM; under `Cc1nc(N2CCC3(CC2)Cc2ncc(C#N)cc2[C@H]3N)c2ccnn2c1-c1ccccc1F` [Compound 209, (5S)-5-amino-1'-[7-(2-fluorophenyl)-6-methyl-pyrazolo[1,5-a]pyrazin-4-yl]spiro[5,7-dihydrocyclopenta[b]pyridine-6,4'-piperidine]-3-carbonitrile], 0.021 µM; under `Cc1nc(N2CCC3(CC2)Cc2ncccc2[C@@H]3N)c2ccnn2c1-c1ccccc1F` [Compound 136, (5R)-1'-[7-(2-fluorophenyl)-6-methyl-pyrazolo[1,5-a]pyrazin-4-yl]spiro[5,7-dihydrocyclopenta[b]pyridine-6,4'-piperidine]-5-amine], 0.383 µM. Under `COc1ccc2c(n1)CC1(CCN(c3nc(C)c(-c4cccc(F)c4F)n4nccc34)CC1)[C@@H]2N` [Compound 221, (5S)-1'-[7-(2,3-difluorophenyl)-6-methyl-pyrazolo[1,5-a]pyrazin-4-yl]-2-methoxy-spiro[5,7-dihydrocyclopenta[b]pyridine-6,4'-piperidine]-5-amine] stands 0.021 µM; under `Cc1nc(N2CCC3(CC2)Cc2ncccc2[C@H]3N)c2ccnn2c1-c1ccc(F)c2cc[nH]c12` [Compound 208, (5S)-1'-[7-(4-fluoro-1H-indol-7-yl)-6-methyl-pyrazolo[1,5-a]pyrazin-4-yl]spiro[5,7-dihydrocyclopenta[b]pyridine-6,4'-piperidine]-5-amine], 0.003 µM. With `Cc1nc(N2CCC3(CC2)Cc2ncccc2[C@H]3N)c2c(CO)cnn2c1-c1ccccc1` [Compound 145, [4-[(5S)-5-aminospiro[5,7-dihydrocyclopenta[b]pyridine-6,4'-piperidine]-1'-yl]-6-methyl-7-phenyl-pyrazolo[1,5-a]pyrazin-3-yl]methanol], the IC50 is over 1 µM. Under `Cc1cccc(-c2c(C)nc(N3CCC4(CC3)Cc3ncccc3[C@H]4N)c3ccnn23)c1C` [Compound 164, (5S)-1'-[7-(2,3-dimethylphenyl)-6-methyl-pyrazolo[1,5-a]pyrazin-4-yl]spiro[5,7-dihydrocyclopenta[b]pyridine-6,4'-piperidine]-5-amine] stands 0.007 µM; under `Cc1nc(N2CCC3(CC2)Cc2ncsc2[C@H]3N)c2ccnn2c1-c1ccccc1F` [Compound 75, (6S)-1'-[7-(2-fluorophenyl)-6-methyl-pyrazolo[1,5-a]pyrazin-4-yl]spiro[4,6-dihydrocyclopenta[d]thiazole-5,4'-piperidine]-6-amine hydrochloride], 0.007 µM.

`CCn1ncc(-c2c(C)nc(N3CCC4(CC3)Cc3ccc(OC)cc3[C@H]4N)c3ccnn23)c1C` [Compound 125, (1S)-1'-[7-(1-ethyl-5-methyl-pyrazol-4-yl)-6-methyl-pyrazolo[1,5-a]pyrazin-4-yl]-6-methoxy-spiro [indane-2,4'-piperidine]-1-amine hydrochloride]: the half-inhibitory concentration (IC50) was determined as 0.009 µM. For `Cc1nccc(-c2c(C)nc(N3CCC4(CC3)Cc3cccnc3[C@H]4N)c3ccnn23)c1Cl` [Compound 13, (7S)-1'-[7-(3-chloro-2-methyl-4-pyridyl)-6-methyl-pyrazolo[1,5-a]pyrazin-4-yl]spiro[5,7-dihydrocyclopenta[b]pyridine-6,4'-piperidine]-7-amine], the half-inhibitory concentration (IC50) was 0.007 µM. To `COc1cc2c(cn1)CC1(CCN(c3nc(C)c(-c4ccccc4F)n4nccc34)CC1)[C@@H]2N` [Compound 131, (5S)-1'-[7-(2-fluorophenyl)-6-methyl-pyrazolo[1,5-a]pyrazin-4-yl] -3-methoxy-spiro [5,7-dihydrocyclopenta[c]pyridine-6,4'-piperidine]-5-amine] belongs 0.013 µM; to `Cc1nccc(-c2c(C)nc(N3CCC4(CC3)Cc3scnc3[C@H]4N)c3ccnn23)c1Cl` [Compound 69, (4S)-1'-[7-(3-chloro-2-methyl-4-pyridyl)-6-methyl-pyrazolo[1,5-a]pyrazin-4-yl]spiro[4,6-dihydrocyclopenta[d]thiazole-5,4'-piperidine]-4-amine hydrochloride], 0.01 µM; to `Cc1nc(N2CCC3(CC2)Cc2ncccc2[C@H]3N)c2ccnn2c1-c1ccc2cnccc2c1` [Compound 169, (5S)-1'-[7-(6-isoquinolyl)-6-methyl-pyrazolo[1,5-a]pyrazin-4-yl]spiro[5,7-dihydrocyclopenta[b]pyridine-6,4'-piperidine]-5-amine], 0.016 µM. Turning to `Cc1nc2c(s1)[C@@H](N)C1(CCN(c3nc(C)c(-c4cnn(C)c4C)n4nccc34)CC1)C2` [Compound 82, (6S)-1'-[7-(1,5-dimethylpyrazol-4-yl)-6-methyl-pyrazolo[1,5-a]pyrazin-4-yl]-2-methyl-spiro[4,6-dihydrocyclopenta[d]thiazole-5,4'-piperidine] -6-amine hydrochloride], the IC50 is 0.027 µM.

With `Cc1nc(N2CCC3(CC2)Cc2ncccc2[C@H]3N)c2ccnn2c1-c1cscc1C#N` [Compound 46, 4-[4-[(5S)-5-aminospiro[5,7-dihydrocyclopenta[b]pyridine-6,4'-piperidine]-1'-yl]-6-methyl-pyrazolo[1,5-a]pyrazin-7-yl]thiophene-3-carbonitrile], the IC50 is 0.073 µM. To `Cc1nccc(-c2c(C)nc(N3CCC4(CC3)Cc3ccccc3[C@H]4N)c3ccnn23)c1F` [Compound 151, (1S)-1'-[7-(3-fluoro-2-methyl-4-pyridyl)-6-methyl-pyrazolo [1 ,5-a]pyrazin-4-yl]spiro[indane-2,4'-piperidine]-1-amine] belongs 0.009 µM. Turning to `Cc1nc(N2CCC3(CC2)Cc2ncccc2[C@H]3N)c2ccnn2c1-c1ccc2c(c1F)OCCO2` [Compound 34, (5S)-1'-[7-(5-fluoro-2,3-dihydro-1,4-benzodioxin-6-yl)-6-methyl-pyrazolo[1,5-a]pyrazin-4-yl]spiro[5,7-dihydrocyclopenta[b]pyridine-6,4'-piperidine]-5-amine], the IC50 turned out to be 0.003 µM.
